In patent publication US20240350422A1, “FORMULATION PROCESS FOR CPMV NANOPARTICLES” (The Regents of the University of California, priority 2021, published 2024):
Where no end group is shown, it is not given here.

B1: TMV-Cy5.5 (+F127): Cy5.5 conjugated to TMV lysines via NHS ester, COAT method; Table 4 row Cy5.5 NHS (+F127) (conjugate, UniProt P69687 2-159, looked up)
Capsid protein: SYSITTPSQFVFLSSAWADPIELINLCTNALGNQFQTQQARTVVQRQFSEVWKPSPQVTVRFPDSDFKVYRYNAVLDPLVTALLGAFDTRNRIIEVENQANPTTAETLDATRRVDDATVAIRSAINNLIVELIRGTGSYNRSSFESSSGLVWTSGPAT
modifications: Cy5.5 dye, F127 coated virion
B2: TMV-Cy5.5 (−F127): Cy5.5 conjugated to uncoated TMV, control; Table 4 row Cy5.5 NHS (−F127) (conjugate, UniProt P69687 2-159, looked up)
Capsid protein: SYSITTPSQFVFLSSAWADPIELINLCTNALGNQFQTQQARTVVQRQFSEVWKPSPQVTVRFPDSDFKVYRYNAVLDPLVTALLGAFDTRNRIIEVENQANPTTAETLDATRRVDDATVAIRSAINNLIVELIRGTGSYNRSSFESSSGLVWTSGPAT
modifications: Cy5.5 dye on whole virion

What was measured:
[1] = Observed water / reaction buffer solubility of ligands; conditions: for solubility in the reaction buffer: 0.01 M potassium phosphate reaction buffer (pH 7.4); for Observed water solubility: Table 1
[2] = Aggregation / dispersion of conjugate particles (photograph, DLS, TEM); type: physicochemical; conditions: pH 7.4
[3] = Dynamic light scattering (DLS) of plant VNPs and conjugates; type: physicochemical; conditions: purified conjugate particles; (+F127) = COAT/FORMCOAT, (−F127) = uncoated control
Procedure: DLS. The hydrodynamic diameter of native and conjugated plant VNPs was determined by diluting the samples to 1 mg/mL in 0.01 M potassium phosphate buffer (pH 7.4) followed by measurement using a Zetasizer Nano ZSP/Zen5600 instrument (Malvern Panalytical, Malvern, UK). The particle length was calculated as the weighted mean of the intensity distribution.

Molecule | solubility in the reaction buffer [1] | Observed water solubility [1] | aggregation / dispersion of the particles [2] | PDI [3] | Z-average [3] [nm]
CC[C@H](C)[C@H](NC(=O)[C@H](Cc1c[nH]c2ccccc12)NC(=O)CNC(=O)[C@H](CCCNC(=N)N)NC(=O)[C@@H](NC(=O)[C@@H](NC(=O)[C@H](CC(N)=O)NC(=O)[C@H](CO)NC(=O)[C@H](CCCCN)NC(=O)[C@H](CCC(=O)O)NC(=O)[C@@H](NC(=O)[C@H](CO)NC(=O)[C@H](C)NC(=O)[C@H](Cc1ccccc1)NC(=O)CNC(=O)CNC(=O)CNC(=O)[C@@H](N)CS)[C@@H](C)O)[C@@H](C)CC)[C@@H](C)CC)C(=O)N[C@@H](Cc1ccccc1)C(=O)O [COVID-106] | insoluble | Poor | – | – | –
CSCC[C@H](NC(=O)[C@H](Cc1c[nH]c2ccccc12)NC(=O)[C@H](CO)NC(=O)[C@H](CCCCN)NC(=O)[C@H](CC(N)=O)NC(=O)[C@H](CC(N)=O)NC(=O)[C@H](CCCCN)NC(=O)[C@H](Cc1c[nH]cn1)NC(=O)[C@H](Cc1ccc(O)cc1)NC(=O)[C@H](Cc1ccc(O)cc1)NC(=O)[C@@H](NC(=O)CNC(=O)[C@H](CC(C)C)NC(=O)[C@H](Cc1ccccc1)NC(=O)[C@@H]1CCCN1C(=O)CNC(=O)CNC(=O)CNC(=O)[C@@H](N)CS)C(C)C)C(=O)O [COVID-153] | insoluble | Poor | – | – | –
CC(C)C[C@H](NC(=O)[C@H](Cc1ccc(O)cc1)NC(=O)[C@H](CC(N)=O)NC(=O)[C@H](Cc1ccc(O)cc1)NC(=O)[C@H](CC(N)=O)NC(=O)CNC(=O)CNC(=O)[C@@H](NC(=O)[C@H](CCCCN)NC(=O)[C@H](CO)NC(=O)[C@H](CC(=O)O)NC(=O)[C@H](CC(C)C)NC(=O)[C@H](CC(N)=O)NC(=O)[C@H](CC(N)=O)NC(=O)CNC(=O)CNC(=O)CNC(=O)[C@@H](N)CS)C(C)C)C(=O)N[C@@H](Cc1ccc(O)cc1)C(=O)N[C@@H](CCCNC(=N)N)C(=O)O [COVID-454] | insoluble | Poor | – | – | –
CC[C@H](C)[C@H](NC(=O)[C@H](Cc1ccccc1)NC(=O)[C@H](CO)NC(=O)[C@H](CCCNC(=N)N)NC(=O)[C@H](CCCCN)NC(=O)[C@H](CO)NC(=O)[C@@H]1CCCN1C(=O)[C@H](CCCCN)NC(=O)[C@H](CO)NC(=O)[C@@H]1CCCN1C(=O)CNC(=O)CNC(=O)CNC(=O)[C@@H](N)CS)C(=O)N[C@@H](CCC(=O)O)C(=O)N[C@@H](CC(=O)O)C(=O)N[C@@H](CC(C)C)C(=O)N[C@@H](CC(C)C)C(=O)N[C@@H](Cc1ccccc1)C(=O)N[C@@H](CC(N)=O)C(=O)N[C@@H](CCCCN)C(=O)N[C@H](C(=O)O)C(C)C [COVID-826] | – | Good | – | – | –
CGGGVFLQKYPHTHLVHQA [Myostatin 1] | – | Good | – | – | –
CSGGGDWFKAFYDKVAEKFKEAF [ApoAI-4FN] | – | Good | – | – | –
CSGGGWGWSLSHGYQVK [ScG3] | – | Good | – | – | –
YQDMVLWKDVFRKNNQLAPVGPSLC [CH401-Rat] | insoluble | Poor | – | – | –
B1 | – | – | dispersed and soluble, with no visible signs of aggregation | 0.236 | 277.6
B2 | – | – | prone to aggregation | 0.749 | 436.8
